Test results published in ChEMBL document CHEMBL4706653, “Ultra-short lipopeptides against gram-positive bacteria while alleviating antimicrobial resistance” (Eur J Med Chem, 2021).
Converted amounts (≈) assume the structure as drawn. The source made the active and inactive calls. The rule behind the calls is not given here. Residues, ends and D or L forms follow the SMILES beside them. *: point of attachment. Stearoyl = CCCCCCCCCCCCCCCCCC(=O)*; Decanoyl = CCCCCCCCCC(=O)*

Columns and labels:
[1] = test system: Staphylococcus aureus; assay: Ratio of MIC for antimicrobial activity against Staphylococcus aureus ATCC 25923 in presence of 2.5% serum to MIC for antimicrobial activity against Staphylococcus aureus ATCC 25923 in absence of serum; type: functional
[2] = test system: Staphylococcus aureus; assay: Antimicrobial activity against Staphylococcus aureus ATCC 25923 assessed as bacterial killing at 0.5 times MIC preincubated for 4 hrs followed by replating on MHB agar and measured after 24 hrs by time kill assay; type: functional, organism-based; details: time 28.0 hrs
[3] = test system: Cell membrane; assay: Induction of membrane disruption in Staphylococcus aureus ATCC 25923 assessed as PI-positive cells at 4 times MIC measured after 2 hrs by propidium iodide staining based flow cytometry relative to control
[4] = test system: Cell membrane; assay: Induction of cytoplasmic membrane disruption in Staphylococcus aureus ATCC 25923 measured for 15 mins by DiSC3-5 dye based fluorescence assay
[5] = test system: Staphylococcus epidermidis; assay: Antimicrobial activity against Staphylococcus epidermidis ATCC 12228 at 0.5 times MIC after 15 passages by broth microdilution method; type: functional, organism-based
[6] = test system: Staphylococcus aureus; assay: Induction of nucleic acid leakage in Staphylococcus aureus ATCC 25923 at 4 times MIC; type: functional
[7] = test system: Staphylococcus aureus; assay: Ratio of MIC for antimicrobial activity against Staphylococcus aureus ATCC 25923 in presence of 5% serum to MIC for antimicrobial activity against Staphylococcus aureus ATCC 25923 in absence of serum; type: functional
[8] = test system: Cell membrane; assay: Induction of membrane disruption in Staphylococcus aureus ATCC 25923 assessed as PI-positive cells at 2 times MIC measured after 2 hrs by propidium iodide staining based flow cytometry relative to control
[9] = test system: Staphylococcus aureus; assay: Ratio of MIC for antimicrobial activity against Staphylococcus aureus ATCC 25923 in presence of 10% serum to MIC for antimicrobial activity against Staphylococcus aureus ATCC 25923 in absence of serum; type: functional
[10] = test system: Staphylococcus aureus; assay: Antimicrobial activity against Staphylococcus aureus ATCC 25923 assessed as bacterial killing at 2 times MIC preincubated for 2 hrs followed by replating on MHB agar and measured after 24 hrs by time kill assay; type: functional, organism-based; details: time 26.0 hrs
[11] = Therapeutic index, ratio of MHC for mouse RBC to geometric mean of peptide MIC for Staphylococcus epidermidis ATCC 12228; type: toxicity; details: pooled result: one value given for 6 cell lines, strains, targets or settings, read-out: TI
[12] = test system: Cell membrane; assay: Induction of membrane disruption in Staphylococcus aureus ATCC 25923 measured after 2 hrs by propidium iodide staining based confocal laser scanning microscopic analysis; type: subcellular
[13] = test system: HEK-293T; assay: Cytotoxicity against HEK293T cells assessed as reduction in cell viability at 1 uM measured after 24 hrs by MTT assay; type: cell-based; details: human
[14] = test system: Staphylococcus aureus; assay: Antibiofilm activity against Staphylococcus aureus ATCC 25923 at 0.5 to 8 uM after 24 hrs by crystal violet staining based assay; type: functional, organism-based; details: dose 0.5-8 µM
[15] = test system: Staphylococcus aureus; assay: Antimicrobial activity against Staphylococcus aureus ATCC 25923 assessed as bacterial killing at 4 times MIC preincubated for 30 mins followed by replating on MHB agar and measured after 24 hrs by time kill assay; type: functional, organism-based; details: time 24.5 hrs
[16] = test system: Lipopolysaccharide (LPS); assay: Binding affinity to LPS (unknown origin) assessed as bacterial killing at 2 times MIC preincubated for 1 hr followed by Staphylococcus aureus ATCC 25923 addition and measured after 2 hrs by colony counting method; details: time 3.0 hrs
[17] = test system: Staphylococcus aureus; assay: Induction of reactive oxygen species generation in Staphylococcus aureus ATCC 25923 by […] dye based fluorescence assay; type: functional, organism-based
[18] = test system: Staphylococcus aureus; assay: Antimicrobial activity against Staphylococcus aureus ATCC 25923 at 0.5 times MIC after 15 passages by broth microdilution method; type: functional, organism-based
[19] = test system: Staphylococcus aureus; assay: Antimicrobial activity against Staphylococcus aureus ATCC 25923 assessed as bacterial killing at MIC preincubated for 4 hrs followed by replating on MHB agar and measured after 24 hrs by time kill assay; type: functional, organism-based; details: time 28.0 hrs
[20] = test system: Erythrocyte; assay: Hemolytic activity against mouse erythrocytes measured after 1 hr; type: ADME, cell-based
[21] = Binding affinity to LTA (unknown origin) assessed as bacterial killing at 2 times MIC preincubated for 1 hr followed by Staphylococcus aureus ATCC 25923 addition and measured after 2 hrs by colony counting method; details: time 3.0 hrs
[22] = test system: Staphylococcus aureus; assay: Antibiofilm activity against ciprofloxacin-resistant Staphylococcus aureus ATCC 25923 at 0.5 to 8 uM after 24 hrs by crystal violet staining based assay; type: functional, organism-based; details: dose 0.5-8 µM
[23] = test system: Staphylococcus aureus; assay: Antimicrobial activity against methicillin-resistant Staphylococcus aureus 113 after 18 hrs by broth microdilution method; type: functional
[24] = test system: Staphylococcus aureus; assay: Antimicrobial activity against Staphylococcus aureus ATCC 25923 after 18 hrs by broth microdilution method; type: functional
[25] = test system: Staphylococcus aureus; assay: Antimicrobial activity against Staphylococcus aureus ATCC 25923 infected in neutropenia BALB/c mouse assessed as reduction in bacterial load in spleen at 10 to 20 mg/kg, ip administered staring from 2 hrs post infection and measured 8 hrs post-infected; type: functional, organism-based; details: dose 10-20 mg/kg, time 6.0 hrs
[26] = test system: Cell membrane; assay: Induction of membrane disruption in Staphylococcus aureus ATCC 25923 measured after 2 hrs by propidium iodide staining based flow cytometry
[27] = test system: Staphylococcus aureus; assay: Antimicrobial activity against Staphylococcus aureus ATCC 25923 assessed as bacterial killing preincubated for 4 hrs followed by replating on MHB agar and measured after 24 hrs by time kill assay; type: functional, organism-based; details: time 28.0 hrs
[28] = test system: Bacillus subtilis; assay: Antimicrobial activity against Bacillus subtilis ATCC 23857 after 18 hrs by broth microdilution method; type: functional
[29] = test system: Staphylococcus aureus; assay: Antimicrobial activity against Staphylococcus aureus ATCC 29213 after 18 hrs by broth microdilution method; type: functional
[30] = test system: Staphylococcus aureus; assay: Antimicrobial activity against methicillin-resistant Staphylococcus aureus 75 after 18 hrs by broth microdilution method; type: functional
[31] = test system: Staphylococcus epidermidis; assay: Antimicrobial activity against Staphylococcus epidermidis ATCC 12228 after 18 hrs by broth microdilution method; type: functional
[32] = test system: Staphylococcus aureus; assay: Antimicrobial activity against Staphylococcus aureus ATCC 25923 infected in neutropenia BALB/c mouse assessed as reduction in bacterial load in liver at 10 to 20 mg/kg, ip administered staring from 2 hrs post infection and measured 8 hrs post-infected; type: functional, organism-based; details: dose 10-20 mg/kg, time 6.0 hrs
[33] = test system: Mus musculus; assay: Antiinflammatory activity in Staphylococcus aureus ATCC 25923 infected neutropenia BALB/c mouse assessed as reduction in TNFalpha level in serum at 10 to 20 mg/kg, ip administered staring from 2 hrs post infection and measured 8 hrs post-infected; type: functional, organism-based; details: dose 10-20 mg/kg, time 6.0 hrs
[34] = test system: Staphylococcus aureus; assay: Antimicrobial activity against Staphylococcus aureus ATCC 25923 infected in neutropenia BALB/c mouse assessed as reduction in bacterial load in kidney at 10 to 20 mg/kg, ip administered staring from 2 hrs post infection and measured 8 hrs post-infected; type: functional, organism-based; details: dose 10-20 mg/kg, time 6.0 hrs
[35] = test system: Staphylococcus aureus; assay: Antimicrobial activity against Staphylococcus aureus ATCC 25923 infected in neutropenia BALB/c mouse assessed as reduction in lung bacterial load at 10 to 20 mg/kg, ip administered staring from 2 hrs post infection and measured 8 hrs post-infected; type: functional, organism-based; details: dose 10-20 mg/kg, time 6.0 hrs

Structure (SMILES): CC[C@H](C)[C@H](NC(=O)CN)C(=O)NCC(=O)N[C@@H](C)C(=O)N[C@H](C(=O)N[C@@H](CC(C)C)C(=O)N[C@@H](CCCCN)C(=O)N[C@H](C(=O)N[C@@H](CC(C)C)C(=O)N[C@H](C(=O)N[C@H](C(=O)NCC(=O)N[C@@H](CC(C)C)C(=O)N1CCC[C@H]1C(=O)N[C@@H](C)C(=O)N[C@@H](CC(C)C)C(=O)N[C@H](C(=O)N[C@@H](CO)C(=O)N[C@@H](Cc1c[nH]c2ccccc12)C(=O)N[C@H](C(=O)N[C@@H](CCCCN)C(=O)N[C@@H](CCCNC(=N)N)C(=O)N[C@@H](CCCCN)C(=O)N[C@@H](CCCNC(=N)N)C(=O)N[C@@H](CCC(N)=O)C(=O)N[C@@H](CCC(N)=O)C(N)=O)[C@@H](C)CC)[C@@H](C)CC)[C@@H](C)O)[C@@H](C)O)C(C)C)C(C)C [MELITTIN]
- Ratio [1]: 2
- Activity [2]: inactive
- Activity [3]: 92.5%
- Activity [4]: Active
- Activity [5]: Active
- Activity [6]: inactive
- Ratio [7]: 2
- Activity [8]: 91.9%
- Ratio [9]: 2
- Activity [10]: Active
- selectivity ratio [11]: 0.8
- Activity [12]: Active
- Activity [13]: Toxic
- Activity [14]: Active
- Activity [15]: Active
- Activity [16]: Active
- Activity [17]: Active
- Activity [18]: Active
- Activity [19]: Active
- MHC10 [20]: 2 µM
- Activity [21]: Active
- Activity [22]: Active

Structure (SMILES): O=C(O)c1cn(C2CC2)c2cc(N3CCNCC3)c(F)cc2c1=O [CIPROFLOXACIN]
- MIC [23]: < 1 µM
- MIC [24]: 1 µM (≈ 0.331 µg/mL)
- Activity [4]: inactive
- Activity [25]: Active
- Activity [26]: inactive
- Activity [27]: inactive
- Activity [6]: Active
- Activity [12]: inactive
- Activity [14]: Active
- MIC [28]: < 1 µM
- MIC [29]: 1 µM (≈ 0.331 µg/mL)
- Activity [16]: inactive
- Activity [17]: Active
- MIC [30]: 128 µM (≈ 42.4 µg/mL)
- Activity [21]: inactive
- MIC [31]: < 1 µM
- Activity [32]: Active
- Activity [33]: Active
- Activity [22]: Active
- Activity [34]: Active
- Activity [35]: Active

Structure (SMILES): CCCCCCCCCCCCCCCCCC(=O)N[C@@H](CCCNC(=N)N)C(=O)N[C@@H](Cc1c[nH]c2ccccc12)C(=O)N[C@@H](CCCNC(=N)N)C(N)=O (Stearoyl-Arg-Trp-Arg-NH2)
- MIC [23]: 8 µM (≈ 6.26 µg/mL)
- MIC [24]: 16 µM (≈ 12.5 µg/mL)
- selectivity ratio [11]: 1.04
- MIC [28]: 16 µM (≈ 12.5 µg/mL)
- MIC [29]: 128 µM (≈ 100 µg/mL)
- MHC10 [20]: 32 µM
- MIC [30]: 8 µM (≈ 6.26 µg/mL)
- MIC [31]: 8 µM (≈ 6.26 µg/mL)

Structure (SMILES): CCCCCCCCCC(=O)N[C@@H](CCCNC(=N)N)C(=O)N[C@@H](CCCNC(=N)N)C(=O)N[C@@H](Cc1c[nH]c2ccccc12)C(N)=O (Decanoyl-Arg-Arg-Trp-NH2)
- MIC [23]: 8 µM (≈ 5.36 µg/mL)
- MIC [24]: 32 µM (≈ 21.4 µg/mL)
- selectivity ratio [11]: 32
- MIC [28]: 8 µM (≈ 5.36 µg/mL)
- MIC [29]: 16 µM (≈ 10.7 µg/mL)
- MHC10 [20]: > 256 µM
- MIC [30]: 16 µM (≈ 10.7 µg/mL)
- MIC [31]: 16 µM (≈ 10.7 µg/mL)
